From patent US5213797A, “A80407 antibiotics” (Eli Lilly and Company, priority 1990, dated 1993)
Bridge positions count the residues as written; N and C are the ends. Square brackets hold non-standard residues; d marks the D form. Peptide text beside a SMILES is read from it. * marks the point of attachment. Ileψ(thiazoline)Cys = CC[C@H](C)[C@H](N)C1=N[C@H](C(=O)*)CS1; dOrn = NCCC[C@@H](N)C(=O)O

Assays:
[1] = system: Kibdelosporangium philippinensis (cultures A80407 and A80407.4); assay: Resistance to antibiotics of the producing cultures, antibiotic sensitivity discs on seeded ISP No. 2 agar; conditions: 10 units; both cultures
[2] = system: Kibdelosporangium philippinensis (cultures A80407 and A80407.4); assay: Lysozyme resistance of the producing cultures; assay type: cell-based; conditions: both cultures
Source text: Methods recommended by Gordon et.al. [R. E. Gordon, D. A. Barnett, J. E. Handerhan, and C. H. Pang, "Nocardia coeliaca, Nocardia autotrophica, and the Nocardin Strain," Int. J. Syst. Bacteriol. 24, (1), 54-63 (1974)] were followed for the majority of physiological tests.

Row | Compound | Resistance to antibiotics [1] | Resistance to lysozyme [2]
1 | CC[C@H](C)[C@H](N)C1=N[C@H](C(=O)N[C@@H](CC(C)C)C(=O)N[C@H](CCC(=O)O)C(=O)N[C@H](C(=O)N[C@H]2CCCCNC(=O)[C@H](CC(N)=O)NC(=O)[C@@H](CC(=O)O)NC(=O)[C@H](Cc3cnc[nH]3)NC(=O)[C@@H](Cc3ccccc3)NC(=O)[C@H]([C@@H](C)CC)NC(=O)[C@@H](CCCN)NC2=O)[C@@H](C)CC)CS1 [bacitracin] ({Ileψ(thiazoline)Cys}-L[dE]IK[dOrn]I[dF]H[dD]N; lactam 4-C) | sensitive | 
2 | lysozyme |  | Neither culture was resistant
